Test results published in patent US20240336574A1 (LATIGO BIOTHERAPEUTICS, INC., priority 2021, published 2024).
pIC50: −log10 of the molar value. Where two headings read alike, the source gives them in different places.

Biological target: T1, recombinant human NaV1.8 stably transfected HEK cells (Homo sapiens, UniProt Q9Y5Y9)
T1 construct: expressed in transfected cells; host or cells: HEK cells, stably transfected
Assay: Compound profiling on NaV1.8, human NaV1.8 cell line, SyncroPatch384PE automated patch clamp assay (Example 102, first set of compounds, Table 16)
Assay type: cell-based
Details: human NaV1.8 HEK cells, Table 16 (first set of compounds)
Experimental: Compound Profiling on NaV1.8—Human NaV1.8 Cell Line—SyncroPatch384PE Assay
Compounds were tested on recombinant human NaV1.8 stably transfected HEK cells using the SyncroPatch384PE system, an automated patch clamp device. Cells were cultured at 37° C./5% CO2 in DMEM medium supplemented with GlutaMAX I, NEAA 1%, FBS 10% and seeded in T175 flasks. Cells were cultured at 30° C. one day prior to recording sodium currents. On the day of the recordings, cells were detached with 0.05% Trypsin-EDTA, resuspended in serum free DMEM medium and placed into the SyncroPatch384PE 6° C. pre-cooled cell hotel and shaken at 200 rpm. Intracellular solution (IC) contained, in mM: 10, CsCl; 110, CsF; 20, EGTA; 10, HEPES. Extracellular solution (EC) contained, in mM: 140, NaCl; 4, KCl; 5, Glucose; 10, HEPES; 2, CaCl2; 1, MgCl2. Washing solution contained, in mM: 40, NMDG; 100, NaCl; 4, KCl; 10, Glucose; 10, HEPES; 5, CaCl2; 1, MgCl2.
Compounds were tested in triplicate in 0.1% DMSO and 0.030% Pluronic Acid. Compounds were diluted 1:3 in EC solution to create a 10-point concentration response curve, spanning a final concentration range from 20-0.001 μM in the assay plate. Each plate contained tetracaine and another tool compound as positive controls. Up to 8 compounds were tested on one plate. 250 μM tetracaine and 0.1% DMSO were used as high and low controls, respectively. Whole cell patch clamp recordings were conducted according to Nanion's standard procedure for SyncroPatch384PE®. Cells were held at a holding potential of −120 mV. A depolarization step to 10 mV for 30 ms was applied (P1 measurement), followed by a hyperpolarization step to −100 mV for 100 ms. An inactivation step at −40 mV for 10 sec was applied before stepping to −100 mV for 20 ms, followed by a step to 10 mV for 30 ms (P2 measurement) and then back to −100 mV for 30 ms. Sweep interval was 15 sec with a sampling rate of 10 kHz. Following establishment of the whole-cell configuration in EC, two washing steps with reference buffer were performed to stabilize the baseline. Compounds were then applied by the SynchroPatch into each well and the current was recorded for five minutes in EC, followed by application of tetracaine to achieve full block at the end of the experiment. The potency of the compounds was assessed on two read-outs, resting state block (P1 measurement) or inactivated state block (P2 measurement) to obtain IC50 values. Values were normalized to high (tetracaine) and low (DMSO) controls. The IC50 values are listed in Table 16 as follows: “A” represents an IC50 less than or equal to 20 nM, “B” represents an IC50 greater than 20 nM to less than or equal to 40 nM, “C” represents an IC50 greater than 40 nM to less than or equal to 200 nM, “D” represents an IC50 greater than 200 nM to less than or equal to 500 nM.

[1] = inactivated state block (P2 measurement), read-out: P2IC50
[2] = resting state block (P1 measurement), read-out: P1IC50

T1 sequence (Q9Y5Y9 whole entry): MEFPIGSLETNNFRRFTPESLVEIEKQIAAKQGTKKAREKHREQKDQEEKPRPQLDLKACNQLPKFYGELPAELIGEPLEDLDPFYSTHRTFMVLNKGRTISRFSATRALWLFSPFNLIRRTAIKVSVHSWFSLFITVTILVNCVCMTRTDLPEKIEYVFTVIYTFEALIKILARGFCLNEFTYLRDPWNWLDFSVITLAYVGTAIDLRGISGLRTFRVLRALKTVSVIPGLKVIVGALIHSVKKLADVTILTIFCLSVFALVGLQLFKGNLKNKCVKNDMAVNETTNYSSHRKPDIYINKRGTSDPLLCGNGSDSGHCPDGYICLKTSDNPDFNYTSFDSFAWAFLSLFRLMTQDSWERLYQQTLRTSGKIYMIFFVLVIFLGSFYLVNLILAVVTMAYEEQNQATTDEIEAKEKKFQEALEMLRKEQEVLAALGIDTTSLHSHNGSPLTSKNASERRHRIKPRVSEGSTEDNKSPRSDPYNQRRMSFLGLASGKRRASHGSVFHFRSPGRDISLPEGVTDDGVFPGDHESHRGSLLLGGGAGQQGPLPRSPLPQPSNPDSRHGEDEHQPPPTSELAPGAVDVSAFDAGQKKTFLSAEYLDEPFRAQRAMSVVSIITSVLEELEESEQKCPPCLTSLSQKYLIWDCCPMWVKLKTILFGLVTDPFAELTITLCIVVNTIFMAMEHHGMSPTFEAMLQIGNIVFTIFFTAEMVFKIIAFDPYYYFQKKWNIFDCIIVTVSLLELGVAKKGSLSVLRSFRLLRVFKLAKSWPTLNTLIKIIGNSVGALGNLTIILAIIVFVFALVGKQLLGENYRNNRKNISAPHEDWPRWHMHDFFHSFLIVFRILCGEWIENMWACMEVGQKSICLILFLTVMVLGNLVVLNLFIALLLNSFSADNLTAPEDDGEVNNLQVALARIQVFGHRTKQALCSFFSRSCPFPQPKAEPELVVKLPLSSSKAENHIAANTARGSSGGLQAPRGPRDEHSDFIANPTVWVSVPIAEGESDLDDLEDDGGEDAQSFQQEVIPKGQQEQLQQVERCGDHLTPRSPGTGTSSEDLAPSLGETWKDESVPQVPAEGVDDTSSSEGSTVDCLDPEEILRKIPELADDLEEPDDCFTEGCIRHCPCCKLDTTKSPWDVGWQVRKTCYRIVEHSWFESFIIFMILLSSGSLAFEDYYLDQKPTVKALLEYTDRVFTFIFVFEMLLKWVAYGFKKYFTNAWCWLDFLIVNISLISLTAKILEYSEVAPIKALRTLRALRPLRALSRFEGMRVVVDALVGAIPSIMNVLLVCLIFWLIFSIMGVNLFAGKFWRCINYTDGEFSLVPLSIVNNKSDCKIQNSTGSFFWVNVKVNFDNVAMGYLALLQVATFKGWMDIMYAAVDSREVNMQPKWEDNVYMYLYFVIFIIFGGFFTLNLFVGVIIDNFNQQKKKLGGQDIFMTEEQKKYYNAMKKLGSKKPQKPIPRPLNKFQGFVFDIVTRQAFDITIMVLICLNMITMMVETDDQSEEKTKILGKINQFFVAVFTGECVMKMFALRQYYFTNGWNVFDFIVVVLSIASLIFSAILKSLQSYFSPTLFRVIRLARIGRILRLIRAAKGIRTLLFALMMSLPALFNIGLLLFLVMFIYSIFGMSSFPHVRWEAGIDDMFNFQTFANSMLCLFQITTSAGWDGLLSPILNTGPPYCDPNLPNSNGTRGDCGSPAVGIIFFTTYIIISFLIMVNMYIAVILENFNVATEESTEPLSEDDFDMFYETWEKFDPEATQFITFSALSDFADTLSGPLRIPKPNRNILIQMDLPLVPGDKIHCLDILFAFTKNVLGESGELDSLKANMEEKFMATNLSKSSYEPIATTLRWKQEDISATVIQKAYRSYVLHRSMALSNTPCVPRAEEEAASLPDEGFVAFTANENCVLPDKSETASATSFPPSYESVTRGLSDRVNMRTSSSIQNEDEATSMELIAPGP

| SMILES | pIC50 [1] | pIC50 [2] |
| --- | --- | --- |
| Cc1c(C(F)(F)F)nnc(Oc2ccc(OC(F)F)c(F)c2F)c1C(=O)Nc1cccc(S(C)(=N)=O)c1 (single isomer, unassigned) [Compound 1511, 3-[4-(difluoromethoxy)-2,3-difluorophenoxy]-N-{3-[imino(methyl)oxo-λ^6-sulfanyl]phenyl}-5-methyl-6-(trifluoromethyl)pyridazine-4-carboxamide] | ≥ 7.70 | ≥ 7.70 |
| Cc1c(C(F)(F)F)nnc(Oc2ccc(OC(F)F)c(F)c2F)c1C(=O)Nc1cccc(S(C)(=N)=O)c1 (single isomer, unassigned) [Compound 1512, 3-[4-(difluoromethoxy)-2,3-difluorophenoxy]-N-{3-[imino(methyl)oxo-λ^6-sulfanyl]phenyl}-5-methyl-6-(trifluoromethyl)pyridazine-4-carboxamide] |  | ≥ 7.70 |
| Cc1nc(F)ccc1Oc1ncc(C(F)(F)F)cc1C(=O)Nc1cccc([S@](C)(=N)=O)c1 (single isomer, unassigned) [Compound 1593] | ≥ 7.70 | ≥ 7.70 |
| Cc1nc(F)ccc1Oc1ncc(C(F)(F)F)cc1C(=O)Nc1cccc([S@@](C)(=N)=O)c1 (single isomer, unassigned) [Compound 1594] | 6.70 to 7.40 | 6.70 to 7.40 |
| CS(=N)(=O)c1cccc(NC(=O)c2cc(C(F)(F)F)cnc2Oc2cccnc2OC(F)(F)F)c1 (single isomer, unassigned) [Compound 1642] | ≥ 7.70 | ≥ 7.70 |
| CS(=N)(=O)c1cccc(NC(=O)c2cc(C(F)(F)F)cnc2Oc2cccnc2OC(F)(F)F)c1 (single isomer, unassigned) [Compound 1643] |  | ≥ 7.70 |
| Cc1c(Oc2ncc(C(F)(F)F)cc2C(=O)Nc2cccc(S(C)(=N)=O)c2)ccc(OC(F)(F)F)c1F (single isomer, unassigned) [Compound 1714] | ≥ 7.70 | ≥ 7.70 |
| Cc1c(Oc2ncc(C(F)(F)F)cc2C(=O)Nc2cccc(S(C)(=N)=O)c2)ccc(OC(F)(F)F)c1F (single isomer, unassigned) [Compound 1715] |  | ≥ 7.70 |
| COc1cc(C#N)ccc1Oc1nnc(C(F)(F)F)c(C)c1C(=O)Nc1cccc(S(C)(=O)=O)c1 [Compound 4] | ≥ 7.70 | ≥ 7.70 |
| CSc1cccc(NC(=O)c2c(Oc3ccc(C#N)cc3C)nnc(C(F)(F)F)c2C)c1 [Compound 14, 3-(4-Cyano-2-methylphenoxy)-5-methyl-N-[3-(methylsulfanyl)phenyl]-6-(trifluoromethyl)pyridazine-4-carboxamide] | 6.30 to 6.70 | 6.30 to 6.70 |

Further lines, results first:

| pIC50 [1] | pIC50 [2] | SMILES |
| --- | --- | --- |
| ≥ 7.70 | ≥ 7.70 | Cc1c(C(F)(F)F)nnc(Oc2ccc(OC(C)C)c(F)c2F)c1C(=O)Nc1cccc(S(C)(=N)=O)c1 (single isomer, unassigned) [Compound 1502, 3-(2,3-difluoro-4-isopropoxyphenoxy)-5-methyl-N-(3-(S-methylsulfonimidoyl)phenyl)-6-(trifluoromethyl)pyridazine-4-carboxamide] |
| ≥ 7.70 | ≥ 7.70 | COc1ccc(Oc2nnc(C(F)(F)F)c(C)c2C(=O)Nc2cccc(S(C)(=N)=O)c2)c(C)c1F (single isomer, unassigned) [Compound 1505, 3-(3-fluoro-4-methoxy-2-methylphenoxy)-N-{3-[imino(methyl)oxo-λ^6-sulfanyl]phenyl}-5-methyl-6-(trifluoromethyl)pyridazine-4-carboxamide] |
| 6.70 to 7.40 | 6.70 to 7.40 | COc1ccc(Oc2nnc(C(F)(F)F)c(C)c2C(=O)Nc2cccc(S(C)(=N)=O)c2)c(C)n1 (single isomer, unassigned) [Compound 1508, N-{3-[imino(methyl)oxo-λ^6-sulfanyl]phenyl}-3-[(6-methoxy-2-methylpyridin-3-yl)oxy]-5-methyl-6-(trifluoromethyl)pyridazine-4-carboxamide] |
| 7.40 to 7.70 | ≥ 7.70 | Cc1cc(F)ccc1Oc1nnc(C(F)(F)F)c(C)c1C(=O)Nc1cccc(S(C)(=N)=O)c1 (stereo not shown) [Compound 20, 3-(4-Fluoro-2-methylphenoxy)-5-methyl-N-(3-(S-methylsulfonimidoyl)phenyl)-6-(trifluoromethyl)pyridazine-4-carboxamide] |
